Literature values as cited in US20150190413A1, “COMPOSITIONS AND METHODS FOR THE TREATMENT OF BLADDER CANCER” (Endo Pharmaceuticals Solutions Inc., priority 2007, published 2015).
Like-named read-outs stand apart in the source and are kept apart here.

System: epithelium of the bladder
Settings: rabbit

Question: Which “Effect on epithelium of the bladder” value (five percent solutions of DMSO in water) does the source give for C[S+](C)[O-] [DMSO, dimethyl sulfoxide] here?
Answer: The value was “sensitive”.

Question: What about the “Effect on bladder cells” value (one hundred percent DMSO) of the same compound?
Answer: Its value is “fixed”.

Question: What about the “Effect on epithelium of the bladder” value (twenty percent solutions of DMSO in water) of the same compound?
Answer: The value was “loss of epithelial cells”.
